Reference: patent publication US20250346600A1, “TRICYCLIC DERIVATIVES AND RELATED USES” (MOMA Therapeutics, Inc., priority 2023, published 2025)

Key:
[1] = target: Full length WRN protein (aa 2-1432) (Homo sapiens (Human), UniProt Q14191); assay: WRN ATPase ADP-Glo biochemical assay, Assay Format B (100 μM ATP); settings: 0.25 nM WRN, 100 nM C6.18 ssDNA, 60 min preincubation, read-out: ATPase ADPGlo AC50 (uM)- Assay Format B
HCT116 cells = assay: HCT116 (MSI) 7 day viability, CellTiter Glo; format: cell-based; settings: Homo sapiens, HCT-116, 168 h, 7 days, read-out: HCT116 (MSI) Viability 7 Day Abs AC50
Experimental: (§1) Compounds were dissolved in DMSO to a concentration of 10 mM. Compounds were then serially diluted in 10 3-fold steps in DMSO using an EVO (Tecan). Plates were then spun down for 1 minute at 1,000 RPM at room temperature.
(§2) The colon carcinoma lines HCT116 (RRID: CVCL_0291) and HT29 (RRID: CVCL_0320) were obtained from ATCC. […] All cells were maintained at 37° C. with 5% CO2 incubator.
(§3) After harvesting, cells were spun down for 5 minutes at 1200 RPM. Cells were resuspended in 10 mL of growth media and counted using Countess (Thermo Fisher). Cell concentrations were adjusted to 50 cells/well for HCT116 and 500 cells/well for HT29. 50 μL of diluted cells were added to compound treated 384 well plates using a 12 channel, 300 uL electronic handheld pipette (Integra). Cell treated plates were placed in 37 C with 5% CO2 incubator for 7 days.
(§4) Afterwards, cells were removed from incubator and equilibrated to room temperature for 15 minutes. 35 uL of CellTiter Glo (Promega #G7573) reagent were added to each well using a 12 channel, 300 uL electronic handheld pipette (Integra). Plates were incubated for 20 minutes at room temperature. Luminescence quantification was performed using Envision (PerkinElmer).
(§5) For data analysis, the assay background signal was determined in wells containing medium, but no cells. Potencies were calculated by linear least squares fit to the four-parameter logistic IC50 equation. The reported IC50 values are the geometrical mean of at least 2 independent replicates.

HT29 cells = assay: HT29 (MSS) 7 day viability, CellTiter Glo; format: cell-based; settings: Homo sapiens, HT-29, 168 h, 7 days, read-out: HT29 (MSS) Viability 7 Day CTGAbs AC50
Experimental: as §1, §2, §3, §4, §5

Sequence of Full length WRN protein (aa 2-1432) (Q14191 2-1432): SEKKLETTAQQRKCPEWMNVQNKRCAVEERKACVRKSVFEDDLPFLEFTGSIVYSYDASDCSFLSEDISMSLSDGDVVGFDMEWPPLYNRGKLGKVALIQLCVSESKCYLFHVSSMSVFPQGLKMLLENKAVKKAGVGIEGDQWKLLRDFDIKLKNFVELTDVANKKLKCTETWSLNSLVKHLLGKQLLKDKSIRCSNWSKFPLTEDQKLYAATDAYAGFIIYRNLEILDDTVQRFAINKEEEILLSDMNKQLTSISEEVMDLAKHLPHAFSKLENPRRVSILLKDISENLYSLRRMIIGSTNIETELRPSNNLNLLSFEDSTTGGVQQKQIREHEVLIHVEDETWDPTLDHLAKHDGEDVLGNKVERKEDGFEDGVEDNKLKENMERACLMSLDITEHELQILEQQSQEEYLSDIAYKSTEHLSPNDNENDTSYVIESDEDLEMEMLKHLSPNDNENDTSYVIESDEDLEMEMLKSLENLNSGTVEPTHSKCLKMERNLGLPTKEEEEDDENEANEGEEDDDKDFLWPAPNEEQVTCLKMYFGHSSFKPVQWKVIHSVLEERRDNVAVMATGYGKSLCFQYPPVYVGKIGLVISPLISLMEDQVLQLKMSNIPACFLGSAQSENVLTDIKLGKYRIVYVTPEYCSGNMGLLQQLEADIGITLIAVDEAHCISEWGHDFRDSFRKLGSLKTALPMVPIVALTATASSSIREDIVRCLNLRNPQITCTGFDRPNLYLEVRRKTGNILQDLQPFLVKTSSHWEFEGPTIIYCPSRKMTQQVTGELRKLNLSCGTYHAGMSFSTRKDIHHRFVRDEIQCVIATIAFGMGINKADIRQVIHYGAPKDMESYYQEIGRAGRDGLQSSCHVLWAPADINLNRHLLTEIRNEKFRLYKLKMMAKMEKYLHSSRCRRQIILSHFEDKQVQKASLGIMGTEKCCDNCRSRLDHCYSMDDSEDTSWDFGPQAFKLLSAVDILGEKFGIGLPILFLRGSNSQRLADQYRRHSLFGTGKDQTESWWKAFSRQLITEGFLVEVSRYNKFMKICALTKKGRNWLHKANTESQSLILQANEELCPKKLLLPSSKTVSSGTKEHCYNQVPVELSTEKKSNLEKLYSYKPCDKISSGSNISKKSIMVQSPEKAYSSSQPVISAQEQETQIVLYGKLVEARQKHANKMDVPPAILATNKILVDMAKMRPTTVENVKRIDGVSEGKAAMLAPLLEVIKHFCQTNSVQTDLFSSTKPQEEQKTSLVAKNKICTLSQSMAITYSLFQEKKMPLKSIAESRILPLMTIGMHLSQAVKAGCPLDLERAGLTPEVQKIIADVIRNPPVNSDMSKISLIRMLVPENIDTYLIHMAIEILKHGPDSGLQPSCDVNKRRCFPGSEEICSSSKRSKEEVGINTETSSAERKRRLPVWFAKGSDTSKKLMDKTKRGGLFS

Structure (SMILES)	AC50 [1] [µM]	AC50 (HCT116 cells) [nM]	AC50 (HT29 cells) [nM]
C=CC(=O)N1CC(OCc2cnc3sccn23)c2nn(-c3ccc(C4CC4)cc3)c3c2C(C1)N(C(=O)c1ccc(C(F)(F)F)nc1)CC3 (stereo not drawn) [Compound 234, 1-(2-(4-cyclopropylphenyl)-9-(imidazo[2,1-b]thiazol-5-ylmethoxy)-5-(6-(trifluoromethyl)nicotinoyl)-2,3,4,5,5a,6,8,9-octahydro-7H-1,2,5,7-tetraazabenzo[cd]azulen-7-yl)prop-2-en-1-one]	0.015 to 0.055	1 to 100	> 3000
C=CC(=O)N1CCc2nn(-c3ccc(C4CC4)cc3O)c3c2C(C1)N(C(=O)c1cnc(C(F)(F)F)c(C)c1N)CC3 (stereo not drawn) [Compound 208, 1-(5-(4-amino-5-methyl-6-(trifluoromethyl)nicotinoyl)-2-(4-cyclopropyl-2-hydroxyphenyl)-2,3,4,5,5a,6,8,9-octahydro-7H-1,2,5,7-tetraazabenzo[cd]azulen-7-yl)prop-2-en-1-one]	0.0015 to 0.005	1 to 100	> 3000
C=CC(=O)N1CCc2nn(-c3ccc(C4CC4)cc3O)c3c2C(C1)N(C(=O)c1cc(C#N)c(C(F)(F)F)cc1N)CC3 (stereo not drawn) [Compound 207, 5-(7-acryloyl-2-(4-cyclopropyl-2-hydroxyphenyl)-3,4,5,5a,6,7,8,9-octahydro-2H-1,2,5,7-tetraazabenzo[cd]azulene-5-carbonyl)-4-amino-2-(trifluoromethyl) benzonitrile]	0.005 to 0.015	1 to 100	> 3000
C=CC(=O)N1CCc2nn(-c3ccc(C4CC4)cc3O)c3c2C(C1)N(C(=O)c1nnc(Br)cc1N)CC3 (stereo not drawn) [Compound 228, 1-(5-(4-amino-6-bromopyridazine-3-carbonyl)-2-(4-cyclopropyl-2-hydroxyphenyl)-2,3,4,5,5a,6,8,9-octahydro-7H-1,2,5,7-tetraazabenzo[cd]azulen-7-yl)prop-2-en-1-one]	0.0015 to 0.005	1 to 100	> 3000
C=CC(=O)N1CCc2nn(-c3ccc(C4CC4)cc3)c3c2C(C1)N(C(=O)c1c(N)cc(Br)c2[nH]cnc12)CC3 (stereo not drawn) [Compound 188, 1-(5-(5-amino-7-bromo-1H-benzo[d]imidazole-4-carbonyl)-2-(4-cyclopropylphenyl)-2,3,4,5,5a,6,8,9-octahydro-7H-1,2,5,7-tetraazabenzo[cd]azulen-7-yl)prop-2-en-1-one]	0.0015 to 0.005	1 to 100	> 3000
C=CC(=O)N1CCc2nn(-c3ccc(C4CC4)cc3O)c3c2C(C1)N(C(=O)c1cnc(SC(F)(F)F)c(F)c1N)CC3 (stereo not drawn) [Compound 214, 1-(5-(4-amino-5-fluoro-6-((trifluoromethyl)thio)nicotinoyl)-2-(4-cyclopropyl-2-hydroxyphenyl)-2,3,4,5,5a,6,8,9-octahydro-7H-1,2,5,7-tetraazabenzo[cd]azulen-7-yl)prop-2-en-1-one]	0.005 to 0.015	1 to 100	> 3000
C=CC(=O)N1CCc2nn(-c3ccc(C4CCC4)cc3C#N)c3c2C(C1)N(C(=O)c1cnc(C(F)(F)F)cc1N)CC3 (stereo not drawn) [Compound 171, 2-(7-acryloyl-5-(4-amino-6-(trifluoromethyl)nicotinoyl)-3,4,5,5a,6,7,8,9-octahydro-2H-1,2,5,7-tetraazabenzo[cd]azulen-2-yl)-5-cyclobutylbenzonitrile]	0.015 to 0.055	1 to 100	> 3000
C=CC(=O)N1CCc2nn(-c3ccc(C4CCC4)cc3O)c3c2C(C1)N(C(=O)c1cnc(Br)c(OC(F)F)c1)CC3 (stereo not drawn) [Compound 94, 1-(5-(6-bromo-5-(difluoromethoxy)nicotinoyl)-2-(4-cyclobutyl-2-hydroxyphenyl)-2,3,4,5,5a,6,8,9-octahydro-7H-1,2,5,7-tetraazabenzo[cd]azulen-7-yl)prop-2-en-1-one]	0.015 to 0.055	1 to 100	> 3000
C=CC(=O)N1CCc2nn(-c3ccc(CC(F)(F)F)cc3O)c3c2C(C1)N(C(=O)c1cnc(C(F)(F)F)cc1N)CC3 (stereo not drawn) [Compound 180, 1-(5-(4-amino-6-(trifluoromethyl)nicotinoyl)-2-(2-hydroxy-4-(2,2,2-trifluoroethyl)phenyl)-2,3,4,5,5a,6,8,9-octahydro-7H-1,2,5,7-tetraazabenzo[cd]azulen-7-yl)prop-2-en-1-one]	0.015 to 0.055	1 to 100	> 3000
C=CC(=O)N1CC(OC2CC2)c2nn(-c3ccc(C4CC4)cc3O)c3c2C(C1)N(C(=O)c1cnc(C(F)(F)F)cc1N)CC3 (stereo not drawn) [Compound 232, 1-(5-(4-amino-6-(trifluoromethyl)nicotinoyl)-9-cyclopropoxy-2-(4-cyclopropyl-2-hydroxyphenyl)-2,3,4,5,5a,6,8,9-octahydro-7H-1,2,5,7-tetraazabenzo[cd]azulen-7-yl)prop-2-en-1-one]	0.005 to 0.015	1 to 100	> 3000
C=CC(=O)N1CCc2nn(-c3ccc(C4CC4)cc3CO)c3c2C(C1)N(C(=O)c1cnc(C(F)(F)F)cc1N)CC3 (stereo not drawn) [Compound 225, 1-(5-(4-amino-6-(trifluoromethyl)nicotinoyl)-2-(4-cyclopropyl-2-(hydroxymethyl)phenyl)-2,3,4,5,5a,6,8,9-octahydro-7H-1,2,5,7-tetraazabenzo[cd]azulen-7-yl)prop-2-en-1-one]	0.015 to 0.055	100 to 250	> 3000
C=CC(=O)N1CCc2nn(-c3ccc(SC(F)(F)F)cc3O)c3c2C(C1)N(C(=O)c1cnc(C(F)(F)F)cc1N)CC3 (stereo not drawn) [Compound 226, 1-(5-(4-amino-6-(trifluoromethyl)nicotinoyl)-2-(2-hydroxy-4-((trifluoromethyl)thio)phenyl)-2,3,4,5,5a,6,8,9-octahydro-7H-1,2,5,7-tetraazabenzo[cd]azulen-7-yl)prop-2-en-1-one]	0.005 to 0.015	1 to 100	> 3000
C=CC(=O)N1CCc2nn(-c3ccc(C4CC4)cc3O)c3c2C(C1)N(C(=O)c1cnc(SC)c(F)c1N)CC3 (stereo not drawn) [Compound 223, 1-(5-(4-amino-5-fluoro-6-(methylthio)nicotinoyl)-2-(4-cyclopropyl-2-hydroxyphenyl)-2,3,4,5,5a,6,8,9-octahydro-7H-1,2,5,7-tetraazabenzo[cd]azulen-7-yl)prop-2-en-1-one]	0.0015 to 0.005	1 to 100	> 3000
C=CC(=O)N1CCc2nn(-c3ccc(C4CCC4)c(F)c3N)c3c2C(C1)N(C(=O)c1cnc(C(F)(F)F)c(O)c1)CC3 (stereo not drawn) [Compound 71, 1-(2-(2-amino-4-cyclobutyl-3-fluorophenyl)-5-(5-hydroxy-6-(trifluoromethyl)nicotinoyl)-2,3,4,5,5a,6,8,9-octahydro-7H-1,2,5,7-tetraazabenzo[cd]azulen-7-yl)prop-2-en-1-one]	0.005 to 0.015	1 to 100	> 3000
C=CC(=O)N1CC2c3c(nn(-c4ccc(C5CC5)cc4)c3CCN2C(=O)c2cnc(C(F)(F)F)cc2N)C2(C1)CN(c1nnc(C)s1)C2 (stereo not drawn) [Compound 233, 1-(5′-(4-amino-6-(trifluoromethyl)nicotinoyl)-2′-(4-cyclopropylphenyl)-1-(5-methyl-1,3,4-thiadiazol-2-yl)-2′,3′,4′,5′,5a′,6′-hexahydro-1′,2′,5′,7′-tetraazaspiro[azetidine-3,9′-benzo[cd]azulen]-1′(9a′),2a′-dien-7′(8′H)-yl)prop-2-en-1-one]	> 0.055	100 to 250	> 3000
C=CC(=O)N1CCc2nn(-c3ccc(C4CCC4)cc3)c3c2C(C1)N(C(=O)c1cnc2c(C(F)(F)F)nn(C)c2c1)CC3 (stereo not drawn) [Compound 185, 1-(2-(4-cyclobutylphenyl)-5-(1-methyl-3-(trifluoromethyl)-1H-pyrazolo[4,3-b]pyridine-6-carbonyl)-2,3,4,5,5a,6,8,9-octahydro-7H-1,2,5,7-tetraazabenzo[cd]azulen-7-yl)prop-2-en-1-one]	0.015 to 0.055	1 to 100	1000 to 3000
C=CC(=O)N1CCc2nn(-c3ccc(C4CC4)cc3O)c3c2C(C1)N(C(=O)c1ccc(C(F)(F)F)nc1N)CC3 (stereo not drawn) [Compound 172, 1-(5-(2-amino-6-(trifluoromethyl)nicotinoyl)-2-(4-cyclopropyl-2-hydroxyphenyl)-2,3,4,5,5a,6,8,9-octahydro-7H-1,2,5,7-tetraazabenzo[cd]azulen-7-yl)prop-2-en-1-one]	0.005 to 0.015	1 to 100	> 3000
C=CC(=O)N1CCc2nn(-c3ccc(C(C)C)cc3O)c3c2C(C1)N(C(=O)c1ccc(C(F)(F)F)nc1N)CC3 (stereo not drawn) [Compound 173, 1-(5-(2-amino-6-(trifluoromethyl)nicotinoyl)-2-(2-hydroxy-4-isopropylphenyl)-2,3,4,5,5a,6,8,9-octahydro-7H-1,2,5,7-tetraazabenzo[cd]azulen-7-yl)prop-2-en-1-one]	0.005 to 0.015	1 to 100	> 3000
